# Data from patent publication US11142518B2, “6-pyrimidin-isoindole derivative as ERK1/2 inhibitor” (OTSUKA PHARMACEUTICAL CO., LTD., priority 2017, dated 2021).
# Like-named read-outs stand apart in the source and are kept apart here.
# Tests used:
# [1] = Solubility determinations in purified water and buffers; assay type: physicochemical; conditions: for solubility at 24 h: 18 °C, read-out: Measured solubilities (mg/ml), bound; for solubility at 24 h / Measured solubilities (mg/ml), value in brackets / Measured solubilities (mg/ml), bound: 18-23° C., t = 24 h
# Method: The solubilities of crystalline form B and the amorphous form of the compound of formula (1) were determined in purified water and buffers at the same concentration up to 24 h stir time at 18 to 23° C.
# The samples of the compound of formula (1) (50 mg) were each suspended in purified water (2 mL) or the appropriate buffer and stirred at ambient temperature (18-23° C.) for 20 to 24 h. After this time the slurries were centrifuged, diluted if appropriate by HPLC sample diluent (acetonitrile/water, 1/1, v/v) and analysed by HPLC peak area. The measured values were compared against a relevant calibration curve for the compound of formula (1). The approximate solubilities were calculated and compensation factors were applied for the appropriate dilution factors and % w/w assays. The dilution factor ensured that the peak area values fell within the desired calibration curve ranges.
# The plug of solid that remained in the centrifuge tube was dried in vacuum oven and analysed by XRPD.
# The preparations of the buffers used in the study are described below:
# pH 1.2—Mix 50 mL of 0.2M potassium chloride solution with 85 mL of 0.2M hydrochloric acid solution.
# pH 2—Mix 50 mL of 0.2M potassium chloride solution with 13 mL of 0.2M hydrochloric acid solution.
# pH 3—Mix 100 mL of 0.1M potassium hydrogen phthalate with 44.6 mL of 0.1M hydrochloric acid solution.
# pH 4—Mix 100 mL of 0.1M potassium hydrogen phthalate with 0.2 mL of 0.1M hydrochloric acid solution.
# pH 5—Mix 100 mL of 0.1M potassium hydrogen phthalate with 45.2 mL of 0.1M sodium hydroxide solution.
# pH 6—Mix 100 mL of 0.1M potassium dihydrogen orthophosphate with 11.2 mL of 0.1M sodium hydroxide solution.
# pH 7—Mix 100 mL of 0.1M potassium dihydrogen orthophosphate with 58.2 mL of 0.1M sodium hydroxide solution.
# pH 8—Mix 100 mL of 0.1M potassium dihydrogen orthophosphate with 93.4 mL of 0.1M sodium hydroxide solution.
# [2] = Solubility determinations in non-aqueous solvents; assay type: physicochemical; conditions: for solubility at 72 h: organic solvent or mixture, thermodynamic from solid, read-out: Estimated maximum solubilities (mg/ml), at 18 to 23° C.
# Method: Form B of Compound (1), prepared as described in Example 3, was charged to the appropriate solvent (2 ml) at intervals of approximately 1 hour. The solutions were purposefully saturated and allowed to stir over 72 h at 18 to 23° C. After this time, the suspensions were centrifuged, their supernatants were sampled, diluted accordingly and the peak areas of the corresponding analytes were measured by HPLC and compared against those of the standard calibrants. The approximate solubilities were calculated and solubilities were physically checked on an anhydrous solvent free basis to confirm that the results were consistent.
# The saturated solutions were centrifuged and 100 μl of the clarified supernatant was added to 250 ml volumetric (ethanol) or 100 ml volumetrics (remainder) and made to volume with sample diluent. The diluted samples were then analysed by HPLC peak area and the estimated maximum solubilities were calculated and are reported in the table below.
# To confirm the estimated solubilities were of the right order of magnitude solutions were prepared up to the estimated maximum measured concentrations and the mixtures were stirred overnight under the same conditions to confirm dissolution.
# [3] = test system: Human melanoma cell line A375; assay: Anti-proliferative activity (Alamar Blue); assay type: cell-based; conditions: A-375, 96 h, A375 cells, 4 days incubation
# Method: The anti-proliferative activities of the compound of the invention was determined by measuring the ability of the compound of formula (1) to inhibit growth in the Human melanoma cell line A375.
# Cell proliferation was determined by measuring the conversion of rezasurin (Alamar Blue) to resorufin in reponse to mitochondrial activity (Nociari, M. M, Shalev, A., Benias, P., Russo, C. Journal of Immunological Methods 1998, 213, 157-167). A375 cells (American Type Culture Collection, Teddington, UK) were grown in Dulbecco's Modified Eagle Medium+10% FBS. Each well of a black 96-well flat-bottomed plate was seeded with 2×10^3 cells in 200 μl of complete culture medium one day before the compound treatment. Cells were incubated with compound in 0.1% (v/v) dimethyl sulfoxide (DMSO) for 4 days before addition of 20 μl Alamar blue. After a further 6 h incubation at 37° C. the plate was read on a Spectramax Gemini reader (Molecular Devices; excitation 535 nm, emission 590 nm). GI50 values were calculated using a sigmoidal dose response equation (Prism GraphPad software, La Jolla, Calif., USA).
smiles,measurement,setting,value
"COc1cc(F)cc([C@@H](CO)NC(=O)[C@@H](C)N2Cc3ccc(-c4nc(NC5CCOCC5)ncc4Cl)cc3C2=O)c1 [(2R)-2-(6-{5-chloro-2-[(oxan-4-yl)amino]pyrimidin-4-yl}-1-oxo-2,3-dihydro-1H-isoindol-2-yl)-N-[(1S)-1-(3-fluoro-5-methoxyphenyl)-2-hydroxyethyl]propanamide]",solubility,"[1]; buffers at pH 1.2 to 8.0, 20.5 °C, pH 1.2, aqueous buffer, thermodynamic from solid, buffers at pH 1.2 to 8.0, read-out: Solubility in buffers (conclusion: practically insoluble)",< 0.1 mg/mL
same,solubility at 24 h,"[1]; pH 1.2 buffer, pH 1.2, simulated gastric fluid, thermodynamic from solid, pH 1.2 Buffer",≥ 0.1 mg/mL
same,solubility at 24 h,"[1]; pH 2 buffer, pH 2, simulated gastric fluid, thermodynamic from solid, pH 2 Buffer",< 0.1 mg/mL
same,solubility at 24 h,"[1]; pH 3 buffer, pH 3, aqueous buffer, thermodynamic from solid, pH 3 Buffer",< 0.1 mg/mL
same,solubility at 24 h,"[1]; pH 4 buffer, pH 4, aqueous buffer, thermodynamic from solid, pH 4 Buffer",< 0.1 mg/mL
same,solubility at 24 h,"[1]; pH 5 buffer, pH 5, aqueous buffer, thermodynamic from solid, pH 5 Buffer",< 0.1 mg/mL
same,solubility at 24 h,"[1]; pH 6 buffer, pH 6, aqueous buffer, thermodynamic from solid, pH 6 Buffer",< 0.1 mg/mL
same,solubility at 24 h,"[1]; pH 7 buffer, pH 7, aqueous buffer, thermodynamic from solid, pH 7 Buffer",< 0.1 mg/mL
same,solubility at 24 h,"[1]; pH 8 buffer, pH 8, aqueous buffer, thermodynamic from solid, pH 8 Buffer",< 0.1 mg/mL
same,solubility at 24 h,"[1]; purified water, water, thermodynamic from solid, Purified water",< 0.1 mg/mL
same,solubility at 72 h,"[2]; PEG 400, 18 °C",229 mg/mL
same,solubility at 72 h,"[2]; ethanol, 18 °C",337 mg/mL
same,solubility at 72 h,"[2]; glycerol, 18 °C",5 mg/mL
same,solubility at 72 h,"[2]; propylene glycol, 18 °C",289 mg/mL
"COc1cc(F)cc([C@@H](CO)NC(=O)[C@@H](C)N2Cc3ccc(-c4nc(NC5CCOCC5)ncc4Cl)cc3C2=O)c1 [Amorphous Form of the Compound of Formula (1)] [(2R)-2-(6-{5-chloro-2-[(oxan-4-yl)amino]pyrimidin-4-yl}-1-oxo-2,3-dihydro-1H-isoindol-2-yl)-N-[(1S)-1-(3-fluoro-5-methoxyphenyl)-2-hydroxyethyl]propanamide]","Measured solubilities (mg/ml), value in brackets",[1]; Purified water,(0.0234 mg/ml
same,"Measured solubilities (mg/ml), value in brackets",[1]; pH 1.2 Buffer,(0.1249 mg/ml
same,"Measured solubilities (mg/ml), value in brackets",[1]; pH 2 Buffer,(0.0226 mg/ml
same,"Measured solubilities (mg/ml), value in brackets",[1]; pH 3 Buffer,(0.0257 mg/ml
same,"Measured solubilities (mg/ml), value in brackets",[1]; pH 4 Buffer,(0.0418 mg/ml
same,"Measured solubilities (mg/ml), value in brackets",[1]; pH 5 Buffer,(0.0268 mg/ml
same,"Measured solubilities (mg/ml), value in brackets",[1]; pH 6 Buffer,(0.0149 mg/ml
same,"Measured solubilities (mg/ml), value in brackets",[1]; pH 7 Buffer,(0.0136 mg/ml
same,"Measured solubilities (mg/ml), value in brackets",[1]; pH 8 Buffer,(0.0138 mg/ml
"COc1cc(F)cc([C@@H](CO)NC(=O)[C@@H](C)N2Cc3ccc(-c4nc(NC5CCOCC5)ncc4Cl)cc3C2=O)c1 [Crystalline Form B of the Compound of Formula (1)] [(2R)-2-(6-{5-chloro-2-[(oxan-4-yl)amino]pyrimidin-4-yl}-1-oxo-2,3-dihydro-1H-isoindol-2-yl)-N-[(1S)-1-(3-fluoro-5-methoxyphenyl)-2-hydroxyethyl]propanamide]","Measured solubilities (mg/ml), bound",[1]; Purified water,<0.1 mg/mL
same,"Measured solubilities (mg/ml), bound",[1]; pH 1.2 Buffer,<0.1 mg/mL
same,"Measured solubilities (mg/ml), bound",[1]; pH 2 Buffer,<0.1 mg/mL
same,"Measured solubilities (mg/ml), value in brackets",[1]; pH 2 Buffer,(0.0034 mg/ml
same,"Measured solubilities (mg/ml), bound",[1]; pH 3 Buffer,<0.1 mg/mL
same,"Measured solubilities (mg/ml), value in brackets",[1]; pH 3 Buffer,(0.0045 mg/ml
same,"Measured solubilities (mg/ml), bound",[1]; pH 4 Buffer,<0.1 mg/mL
same,"Measured solubilities (mg/ml), value in brackets",[1]; pH 4 Buffer,(0.0049 mg/ml
same,"Measured solubilities (mg/ml), bound",[1]; pH 5 Buffer,<0.1 mg/mL
same,"Measured solubilities (mg/ml), value in brackets",[1]; pH 5 Buffer,(0.0031 mg/ml
same,"Measured solubilities (mg/ml), bound",[1]; pH 6 Buffer,<0.1 mg/mL
same,"Measured solubilities (mg/ml), value in brackets",[1]; pH 6 Buffer,(0.0027 mg/ml
same,"Measured solubilities (mg/ml), bound",[1]; pH 7 Buffer,<0.1 mg/mL
same,"Measured solubilities (mg/ml), value in brackets",[1]; pH 7 Buffer,(0.0017 mg/ml
same,"Measured solubilities (mg/ml), bound",[1]; pH 8 Buffer,<0.1 mg/mL
same,"Measured solubilities (mg/ml), value in brackets",[1]; pH 8 Buffer,(0.0020 mg/ml
"COc1cc(F)cc([C@@H](CO)NC(=O)[C@@H](C)N2Cc3ccc(-c4nc(NC5CCOCC5)ncc4Cl)cc3C2=O)c1 [compound of formula (1), (2R)-2-(6-{5-chloro-2-[(oxan-4-yl)amino]pyrimidin-4-yl}-1-oxo-2,3-dihydro-1H-isoindol-2-yl)-N-[(1S)-1-(3-fluoro-5-methoxyphenyl)-2-hydroxyethyl]propanamide]",GI50,[3],3.4 nM
same,"Solubility in ethanol, PEG 400 and propylene glycol compared with water","[2]; ethanol, PEG 400 and propylene glycol than in water",significantly greater solubility
